In US20100173930A1, “Certain Chemical Entities, Compositions and Methods” (priority 2006, published 2010):

Test system: SKM MYOFIBRIL
Assay: SKM myofibril AC1.4 (ATPase, PK/LDH coupled enzyme system); further: unit not given here
Assay type: biochemical
Settings: screen at pCa=6.5

First: Cc1ccc2nc(-c3ccccc3O)c(NCc3cccc(Cl)c3)n2n1 [2-(3-{[(3-chlorophenyl)methyl]amino}-6-methyl-4-hydroimidazo[1,2-e]pyridazin-2-yl)phenol]
Second: Oc1ccccc1-c1nc2ccc(Br)cn2c1NCc1cccc(Cl)c1 [2-(6-bromo-3-{[(3-chlorophenyl)methyl]amino}-4-hydroimidazo[1,2-a]pyridin-2-yl)phenol]
The “SKM MYOFIBRIL AC1.4 (median)” value of the first is lower: 3.5753 for the first, 5.3855 for the second.

Going from `CCC(C)(C)Nc1c(-c2cc3cccc(C)c3nc2O)nc2ccccn12` [3-{3-[(1,1-dimethylpropyl)amino](4-hydroimidazo[1,2-a]pyridin-2-yl)}-8-methylquinolin-2-ol] to `CCC(C)(C)Nc1c(-c2cc3cc(C)ccc3nc2O)nc2ccccn12` [3-{3-[(1,1-dimethylpropyl)amino](4-hydroimidazo[1,2-a]pyridin-2-yl)}-6-methylquinolin-2-ol], the “SKM MYOFIBRIL AC1.4 (median)” value falls from 2.3075 to 1.1087.

Compared with `CC(CO)c1ccn2c(NCc3cccc(Cl)c3)c(-c3ccccc3O)nc2c1` (stereo not drawn) [2-(3-{[(3-chlorophenyl)methyl]amino}-7-(1-hydroxy-isopropyl)-4-hydroimidazo[1,2-a]pyridin-2-yl)phenol], `NCc1ccc2nc(-c3ccccc3O)c(NCc3cccc(Cl)c3)n2c1` [2-(6-(aminomethyl)-3-{[(3-chlorophenyl)methyl]amino}-4-hydroimidazo[1,2-a]pyridin-2-yl)phenol] is lower in “SKM MYOFIBRIL AC1.4 (median)” value: 1.2697 for the first, 0.2349 for the second.

Compared with `C[C@@H](Nc1c(-c2ccc(O)cc2)nc2ccccn12)c1ccccc1` [4-{3-[((1R)-1-phenylethyl)amino]-4-hydroimidazo[1,2-a]pyridin-2-yl}phenol], `Oc1ccc(-c2nc3ccccn3c2NCc2ccccc2)cc1` [4-{3-[benzylamino]-4-hydroimidazo[1,2-a]pyridin-2-yl}phenol] is lower in “SKM MYOFIBRIL AC1.4 (median)” value: 28.0451 for the first, 27.3665 for the second.

First: Cc1ccn2c(NCc3ccccc3Cl)c(-c3ccccc3O)nc2c1 [2-(3-{[(2-chlorophenyl)methyl]amino}-7-methyl-4-hydroimidazo[1,2-a]pyridin-2-yl)phenol]
Second: Cc1ccn2c(NCc3ccccc3F)c(-c3ccccc3O)nc2c1 [2-(3-{[(2-fluorophenyl)methyl]amino}-7-methyl-4-hydroimidazo[1,2-a]pyridin-2-yl)phenol]
The “SKM MYOFIBRIL AC1.4 (median)” value of the first is higher: 1.165 for the first, 1.0036 for the second.

First: Oc1ccc(-c2nc3ccccn3c2NC2CCCCC2)cc1 [4-[3-(cyclohexylamino)-4-hydroimidazo[1,2-a]pyridin-2-yl]phenol]
Second: Cc1cccn2c(NC3CCCCC3)c(-c3ccc(O)cc3)nc12 [4-[3-(cyclohexylamino)-8-methyl-4-hydroimidazo[1,2-a]pyridin-2-yl]phenol]
The “SKM MYOFIBRIL AC1.4 (median)” value of the first is lower: 8.513 for the first, 8.8767 for the second.

First: CCc1ccc2nc(-c3ccc(O)cc3)c(NC3CCCCC3)n2c1 [4-[3-(cyclohexylamino)-6-ethyl-4-hydroimidazo[1,2-a]pyridin-2-yl]phenol]
Second: Oc1ccc(-c2nc3ccc(Br)cn3c2NC2CCCCC2)cc1 [4-[6-bromo-3-(cyclohexylamino)-4-hydroimidazo[1,2-a]pyridin-2-yl]phenol]
The “SKM MYOFIBRIL AC1.4 (median)” value of the first is lower: 4.3136 for the first, 12.8016 for the second.

Going from `Oc1ccc(-c2nc3ccccn3c2NCc2cccc(F)c2)cc1` [4-(3-{[(3-fluorophenyl)methyl]amino}-4-hydroimidazo[1,2-a]pyridin-2-yl)phenol] to `Oc1ccc(-c2nc3ccccn3c2NCc2ccc(F)cc2)cc1` [4-(3-{[(4-fluorophenyl)methyl]amino}-4-hydroimidazo[1,2-a]pyridin-2-yl)phenol], the “SKM MYOFIBRIL AC1.4 (median)” value rises from 28.3763 to 40.3674.

Going from `O=C(O)c1ccc2nc(-c3ccccc3O)c(NCc3ccc(F)cc3)n2c1` [3-{[(4-fluorophenyl)methyl]amino}-2-(2-hydroxyphenyl)-4-hydroimidazo[1,2-a]pyridine-6-carboxylic acid] to `COC(=O)c1ccc2nc(-c3ccccc3O)c(NCc3ccc(F)cc3)n2c1` [methyl 3-{[(4-fluorophenyl)methyl]amino}-2-(2-hydroxyphenyl)-4-hydroimidazo[1,2-a]pyridine-6-carboxylate], the “SKM MYOFIBRIL AC1.4 (median)” value falls from 30.4725 to 4.201.

First: Cc1ccn2c(NCc3ccc(F)cc3)c(-c3ccccc3O)nc2c1 [2-(3-{[(4-fluorophenyl)methyl]amino}-7-methyl-4-hydroimidazo[1,2-a]pyridin-2-yl)phenol]
Second: Cc1ccn2c(NCc3ccccc3)c(-c3ccccc3O)nc2c1 [2-{7-methyl-3-[benzylamino]-4-hydroimidazo[1,2-a]pyridin-2-yl}phenol]
The “SKM MYOFIBRIL AC1.4 (median)” value of the first is lower: 1.1306 for the first, 2.0618 for the second.

First: Cc1ccc2nc(-c3ccc(O)cc3)c(NC3CCCC3)n2c1 [4-[3-(cyclopentylamino)-6-methyl-4-hydroimidazo[1,2-a]pyridin-2-yl]phenol]
Second: N#Cc1ccn2c(NC3CCCC3)c(-c3ccc(O)cc3)nc2c1 [3-(cyclopentylamino)-2-(4-hydroxyphenyl)-4-hydroimidazo[1,2-a]pyridine-7-carbonitrile]
The “SKM MYOFIBRIL AC1.4 (median)” value of the first is lower: 13.5754 for the first, 17.9621 for the second.

Compared with `O=C(NCCO)c1ccc2nc(-c3ccccc3O)c(NCc3ccc(F)cc3)n2c1` [(3-{[(4-fluorophenyl)methyl]amino}-2-(2-hydroxyphenyl)(4-hydroimidazo[1,2-a]pyridin-6-yl))-N-(2-hydroxyethyl)carboxamide], `Oc1ccccc1-c1nc2ccc(Cl)cn2c1NCc1ccc(F)cc1` [2-(6-chloro-3-{[(4-fluorophenyl)methyl]amino}-4-hydroimidazo[1,2-a]pyridin-2-yl)phenol] is higher in “SKM MYOFIBRIL AC1.4 (median)” value: 2.2384 for the first, 3.5116 for the second.

Going from `Oc1ccc(-c2nc3ccc(F)cn3c2NCc2ccc(F)cc2)cc1` [4-(6-fluoro-3-{[(4-fluorophenyl)methyl]amino}-4-hydroimidazo[1,2-a]pyridin-2-yl)phenol] to `Cc1ccc2cc(-c3nc4cc(C)ccn4c3NCc3ccc(F)cc3)c(O)nc2c1` [3-(3-{[(4-fluorophenyl)methyl]amino}-7-methyl(4-hydroimidazo[1,2-a]pyridin-2-yl))-7-methylquinolin-2-ol], the “SKM MYOFIBRIL AC1.4 (median)” value rises from 26.5123 to 38.7091.

First: Cc1ccc(-c2nc3cc(C)ccn3c2NC2CCCC2)cc1 [cyclopentyl[7-methyl-2-(4-methylphenyl)(4-hydroimidazo[1,2-a]pyridin-3-yl)]amine]
Second: Cc1ccc(-c2nc3ccccn3c2NCc2cccc(Cl)c2)cc1 [[(3-chlorophenyl)methyl][2-(4-methylphenyl)(4-hydroimidazo[1,2-a]pyridin-3-yl)]amine]
The “SKM MYOFIBRIL AC1.4 (median)” value of the first is lower: 4.2349 for the first, 17.6147 for the second.

First: Cc1cccc2cc3c(nc12)OCC(=O)N(Cc1ccc(Cl)cc1)C3 [4-[(4-chlorophenyl)methyl]-10-methyl-2H,5H-1,4-oxazaperhydroepino[7,6-b]quinolin-3-one]
Second: Cc1ccn2c(NCc3ccccc3C)c(-c3ccccc3O)nc2c1 [2-(7-methyl-3-{[(2-methylphenyl)methyl]amino}-4-hydroimidazo[1,2-a]pyridin-2-yl)phenol]
The “SKM MYOFIBRIL AC1.4 (median)” value of the first is higher: 18.1529 for the first, 0.9648 for the second.
